In test [1] the test system is mitochondria of Jurkat tumor cells. The test can be described thus: Mitochondrial damage (MitoSense Red staining). It is filed as cell-based. The settings on record: compound at IC50 concentration, incubation 2 h.
Test [2] relates to A2780. The test can be described thus: In vitro cytotoxicity, IC50 by flow cytometry (Guava ViaCount). It is filed as cell-based, human. The following applies: A2780 cells. The procedure, abridged:
(§1)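 Suspension lines kept in RPMI 1640 with 10% FBS and […] at 37 °C, 5% CO2; cells seeded at 5 × 10^4 per well and incubated overnight before compound exposure. Viability counted by flow cytometry with Guava ViaCount staining to derive IC50.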
(A flow cytometer gives signals particle by particle.)

The test system of test [3] is HL60. The description is as above. The following applies: HL60 cells. It is filed as cell-based, human. The procedure, abridged: as §1
The test system of test [4] is Jurkat cells. The test can be described thus: Cell cycle analysis (Guava Cell Cycle Reagent). Format: cell-based. The following applies: IC50 concentration, 24 h, flow histogram. As for the experimental part:
Our findings are consistent with the literature data that many ICs predominantly affect the G2 and S phases, reducing them.
The incubation time of ionic liquids with cells was 24 h. […] It is listed because the picture prints the label with values. / The fit parameters printed in each histogram (RMS, Mean G1, Mean G2, G2/G1, CV G1, CV G2) were left out as statistics of the cell-cycle model.

For test [5], the system named is Jurkat cells. The test can be described thus: Apoptosis/necrosis induction (Annexin V Alexa Fluor488, 7AAD staining). Format: cell-based. The following applies: compound at IC50 concentration, incubation 2 h. The procedure, abridged: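 Jurkat cells stained with Annexin V Alexa Fluor488, 7AAD and MitoSense Red to assess membrane state, DNA and mitochondrial membrane integrity, distinguishing apoptosis from necrosis; lower MitoSense Red fluorescence marks mitochondrial damage.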

In test [6] the test system is U937. The test can be described thus: In vitro cytotoxicity, IC50 by flow cytometry (Guava ViaCount). It is filed as cell-based. The following applies: U937 cells. The essentials: as §1
Test [7] deals with HEK293. Described as above. It is filed as cell-based. The settings on record: HEK293 cells, conditionally normal. The essentials: as §1
The subject of test [8] is Jurkat. The description is as above. The following applies: Jurkat cells. It is filed as cell-based. The essentials: as §1
Test [9] relates to K562. Described as above. Format: cell-based. The following applies: K562 cells. The essentials: as §1

Each structure is given as a SMILES string.

What is called IC50 is the concentration at which inhibition is half-maximal. High values mean a need for much substance, low ones inhibition by little substance. Regarding `C[n+]1ccn(CCCCCCOC(=O)[C@]23CCC(C)(C)CC2C2=CCC4[C@@]5(C)CC[C@H](O)C(C)(C)C5CC[C@@]4(C)[C@]2(C)CC3)c1.O=C([O-])c1ccccc1O` (stereo partly drawn) [13f, 1-(6-{[(3β)-3-Hydroxyolean-12-en-28-oyl]oxy}hexyl)-3-methylimidazolium Salicylate], in test [1], the “Mito-Damage (%)” value is on record as 49.43%. Moreover, the IC50 was 0.018 ± 0.002 µM in test [2]; 0.003 ± 0.001 µM in test [3]; 0.011 ± 0.001 µM in test [6]; 0.037 ± 0.003 µM in test [7]; 0.008 ± 0.001 µM in [8]; 0.013 ± 0.001 µM in test [9]. Further, the “Freq Sub-G1 (hypodiploid cell population)” value in test [4] came to 9.83%. Also, the “Apoptosis (%) Early” value in [5] is 0.17%. Moreover, the “Apoptosis (%) Late” value in test [5] was 35.95%. Further, in [5], the “Apoptosis (%) Necrosis” value is listed as 11.07%.
